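48-hour exposure; five concentrations; linearly interpolated endpoints. The concentration for 50% growth inhibition is given as GI50. TGI denotes the concentration required for complete inhibition of growth.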
Experiments:
Assay in all cases: NCI anticancer screen, dose series, 48 h
[1] = test system: NCI-H522 lung
[2] = test system: SF-268 CNS
[3] = test system: OVCAR-4 ovarian
[4] = test system: SR leukemia
[5] = test system: SK-MEL-5 melanoma
[6] = test system: SW-620 colon
[7] = test system: HT29 colon
[8] = test system: SN12C renal
[9] = test system: SK-MEL-28 melanoma
[10] = test system: M14 melanoma

| Compound | GI50 [1] [µM] | TGI [1] [µM] | GI50 [2] [µM] | TGI [2] [µM] | GI50 [3] [µM] | TGI [3] [µM] | GI50 [4] [µM] | TGI [4] [µM] | GI50 [5] [µM] | TGI [5] [µM] | TGI [6] [µM] | TGI [7] [µM] | GI50 [8] [µM] | TGI [8] [µM] | TGI [9] [µM] | GI50 [10] [µM] | TGI [10] [µM] | GI50 [6] [µM] | GI50 [7] [µM] | GI50 [9] [µM] |
| --- | --- | --- | --- | --- | --- | --- | --- | --- | --- | --- | --- | --- | --- | --- | --- | --- | --- | --- | --- | --- |
| Clc1nc(Cl)c2ncn(Cc3ccc(Cn4cnc5c(Cl)nc(Cl)nc54)cc3)c2n1 | 5.65 | 25 | 3.4 | 23.4 | 13.6 | 28.6 | 0.287 | 8.08 | 2.13 | 20.8 | 8.91 | 16.4 | 12.1 | 32.4 | 28.3 | 11.2 | 27 | – | – | – |
| Cc1cc(OCc2nnc3n2N=C(c2ccc(Cl)cc2Cl)CS3)ccc1Cl | 22.6 | 65 | 73.4 | > 100 | 59.6 | > 100 | 43.3 | > 100 | 25.6 | > 100 | > 100 | > 100 | 38.7 | > 100 | > 100 | 43.4 | > 100 | > 100 | 59.8 | 79.3 |
| CN1C(Cl)=NS(=O)(=O)c2ccccc21 | – | > 100 | – | > 100 | – | > 100 | – | > 100 | – | > 100 | > 100 | > 100 | – | > 100 | > 100 | – | > 100 | – | – | – |
| Cc1nc(Nc2nc3ccccc3o2)nc(-c2cccc([N+](=O)[O-])c2)c1C(=O)Nc1ccc(F)c(Cl)c1 | 1.39 | 5.71 | 3.3 | > 100 | 1.62 | 35 | 2.6 | 15.1 | 1.71 | 3.45 | > 100 | 19.5 | 2.64 | 20.1 | > 100 | 3.26 | > 100 | 3.09 | 2.21 | 3.83 |
| NCCSCCc1ccccc1 | – | > 100 | – | > 100 | – | > 100 | – | > 100 | – | > 100 | > 100 | > 100 | – | > 100 | > 100 | – | > 100 | – | – | – |
| N#Cc1cc(S(=O)(=O)Nc2nc3ccccc3s2)c(SCc2ccccc2)cc1Cl | 11.3 | 32.3 | 24.7 | 78.5 | 34.4 | > 100 | 37.7 | > 100 | 15.4 | 31 | 43.7 | 55.8 | 19.2 | 41.5 | 87.8 | 18.9 | 37.1 | 19.8 | 23.6 | 28.8 |
| COc1ccc(C2=CC(c3ccc(OC)c(OC)c3)c3c(c4ccccc4oc3=O)O2)cc1OC (stereo not drawn) | 1.44 | – | 3.46 | > 100 | 3.85 | > 100 | 0.498 | > 100 | 0.363 | > 25.4 | > 100 | 31 | 4.39 | > 100 | > 100 | 1.27 | > 31.3 | 1.19 | 0.822 | – |
| Cc1ccc(NC(=O)C(=O)Cc2cc[n+]([O-])cc2)cc1 | – | > 100 | – | > 100 | – | > 100 | – | > 100 | – | > 100 | > 100 | > 100 | – | > 100 | > 100 | – | > 100 | – | – | – |
| CC(=O)Oc1ccc(C(c2ccc(OC(C)=O)cc2)c2ccccn2)cc1 | 59 | > 100 | > 87.9 | > 100 | 0.287 | 4.42 | > 100 | > 100 | 31.8 | > 100 | > 100 | > 100 | 0.558 | > 100 | > 100 | 56.6 | > 100 | – | – | 61.5 |
| CC(C)COC(=O)c1ccc2[nH]c(O)c(C=Nc3ccc(S(N)(=O)=O)cc3)c2c1 | 4.03 | 8.5 | 1.22 | 4.45 | 2.39 | 7.79 | 0.36 | 6.43 | 1.65 | 4.46 | 3.83 | 5.21 | 1.21 | 7.94 | 4.75 | 1.25 | 4.8 | 0.671 | 1.63 | 1.69 |
| CC(Br)C(=O)Nc1ccc(C(=O)O)c(O)c1 (stereo not drawn) | – | 47.1 | – | > 100 | – | > 100 | – | > 100 | – | > 100 | > 100 | > 100 | – | 66.1 | > 100 | – | > 100 | – | – | – |
| O=C(O)/C=C/C(=O)N1C/C(=C\c2ccccc2)C(=O)/C(=C/c2ccccc2)C1 | – | 4.94 | – | 16.8 | – | 16.4 | – | 41.6 | – | 19 | 6.09 | 21.1 | – | 15.5 | 15.9 | – | 11.9 | – | – | – |
| COC1=C2CC(C)CC(OC)C(O)C(C)/C=C(\C)C(OC(N)=O)C(OC)/C=C\C=C(/C)C(=O)NC(=C(/C=N/N3CCCCC3)C1=O)C2=O (stereo not drawn) | – | 7.87 | – | 25.1 | – | 19.3 | – | 7.48 | – | 29.9 | 8.7 | 26.6 | – | 15.5 | 37 | – | 37.4 | – | – | – |
| O=C1NCCS(=O)(=O)/C1=C\C=C\c1cccc(C(F)(F)F)c1 | 1.43 | 3.19 | 3.28 | 15 | 4.84 | 19.2 | 0.539 | > 100 | 1.71 | 3.36 | 7.56 | 5.38 | 3.08 | 12 | 11.3 | 1.89 | 7.24 | 2.65 | 2.3 | 2.92 |
| CCc1nc(N)nc(N)c1-c1ccc(Cl)c(N=CN(C)C)c1 | – | 62.7 | – | > 100 | – | > 100 | – | > 83.4 | – | > 100 | > 100 | > 100 | – | > 100 | > 100 | – | > 100 | – | – | – |
| CC(C)c1cc(OCC(O)CO)cc(C(C)C)c1 (stereo not drawn) | – | > 100 | – | > 100 | – | > 100 | – | > 100 | – | > 100 | > 100 | > 100 | – | > 100 | > 100 | – | > 100 | – | – | – |

From PubChem BioAssay (NCI)
